Legend:
[1] = system: IL-8 (Interleukin-8) production; test: Glucocorticoid inhibition of IL-1 induced IL-8 production in SW1353 human chondrosarcoma cells; format: cell-based; conditions: 20 ng/ml IL-1 beta, 24 hours after IL-1 addition, ELISA, read-out: IC50, inhibition of IL-8 expression
Experimental: (§1) This assay, the glucocorticoid inhibition of IL-1 (Interleukin-1) induced MMP-1 (Matrix Metalloproteinase-1) and IL-8 (Interleukin-8) production in human chondrosarcoma cells, is conducted as follows: SW1353 human chondrosarcoma cells (obtained from ATCC) from passage 12 through passage 19 are used in a 96 well format assay. Cells are plated at confluence into 96 well plates in DMEM (Dulbecco's Modified Eagle Medium) with 10% fetal bovine serum and incubated at 37° C., 5% CO2. After 24 hours, serum containing media is removed and replaced with 200 ul/well DMEM containing 1 mg/L insulin, 2 g/L lactalbumin hydrosylate, and 0.5 mg/L ascorbic acid and returned to incubation at 37° C., 5% CO2. […] IL-8 production is assessed using the Quantikine human IL-8 ELISA kit from R&D Systems (D8050) on samples diluted 60-fold in RD5P Calibrator Diluent, following the manufacturer's protocol. The percent of the average IL-1 control is determined for the average of each of the triplicate samples following subtraction of the average signal from untreated cells. IC50's are determined from log linear plots of the percent of control versus the concentration of inhibitor. […] MMP-1 production is assessed via the Bio-Trak MMP-1 ELISA kit from Amersham (RPN2610) on 100 ul of neat sample following the manufacturer's protocol. […]

[2] = system: MMP-1 (Matrix Metalloproteinase-1) production; test: Glucocorticoid inhibition of IL-1 induced MMP-1 production in SW1353 human chondrosarcoma cells; format: cell-based; conditions: 20 ng/ml IL-1 beta, 72 hours after IL-1 addition, ELISA, read-out: IC50, inhibition of MMP1 expression
Experimental: as §1

IC50 [1]: 5 nM
IC50 [2]: 5 nM
SMILES: C[C@@H]1C[C@H]2[C@@H]3CCC4=CC(=O)C=C[C@]4(C)[C@@]3(F)[C@@H](O)C[C@]2(C)[C@@]1(O)C(=O)CO [Dexamethasone]

From patent US20070129410A1, “Octahydrophenanthrene hydrazinde derivatives useful as glucocorticoid receptor modulators” (Pfizer Inc., priority 2003, published 2007)
